Literature values as cited in patent US20100221330A1, “BUOYANT FORMULATIONS OF BETAINE” (priority 2003, published 2010).

Conditions: human subjects, betaine supplementation

## C[N+](C)(C)CC(=O)O [betaine]
  Effect on blood pressure: reduces the blood pressure, especially the diastolic pressure
